“And” between values parts separate entries of the source, which are not always exact repeats. Identical values can stand only once.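 Cultured in 96-well plates, cells were exposed to test compound for 48 hours across five concentrations. GI50 is the concentration that inhibits growth by half. TGI: concentration producing complete growth inhibition.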
Experiments:
Experiment in all cases: DTP human tumour cell line panel, 48 h
[1] = test system: XF 498 CNS
[2] = test system: UO-31 renal
[3] = test system: OVCAR-3 ovarian
[4] = test system: HOP-18 NSCLC
[5] = test system: K-562 leukemia
[6] = test system: M14 melanoma
[7] = test system: DMS 114 small cell lung
[8] = test system: LXFL 529 NSCLC
[9] = test system: SK-MEL-28 melanoma
[10] = test system: MCF7 breast

SMILES | TGI [1] [µM] | TGI [2] [µM] | TGI [3] | TGI [4] [µM] | TGI [5] [µM] | TGI [6] | TGI [7] [µM] | TGI [8] [µM] | TGI [9] [µM] | GI50 [10] | TGI [10] | GI50 [2] [µM] | GI50 [3] | GI50 [5] [µM] | GI50 [6] | GI50 [9] [µM]
Cc1cccc(C)c1NC(=O)CCC/C(CC(=O)c1ccc(F)cc1)=N\NC(=O)C(=O)NN | > 100 | > 100 | > 100 µM | > 100 | > 100 | > 100 µM | > 100 | > 100 | > 100 |  |  |  |  |  |  | 
CCOC(=O)C1C=C2O[C@@H]3OC4(CCCCC4)O[C@@H]3C2C2C(=O)CCC(=O)[C@@]12C(=O)OC (stereo partly drawn) | > 100 | > 100 | > 100 µM | > 100 | > 100 | > 100 µM | > 100 | > 100 | > 100 |  |  |  |  |  |  | 
Nc1ccc(-c2cc(C(=O)Nc3nccs3)[nH]c(=S)n2)cc1 | > 100 | > 100 | > 100 µM | > 100 | > 100 | > 100 µM | > 100 | > 100 | > 100 |  |  |  |  |  |  | 
C1OC1CN1CCN(CC2CO2)CC1 (stereo not drawn) | > 100 | > 100 | > 100 µM | > 100 | > 100 | > 100 µM | > 100 | > 100 | > 100 |  |  |  |  |  |  | 
CC[C@@]1(OC(=O)C(N)CCCCN)C(=O)OCc2c1cc1n(c2=O)Cc2cc3ccccc3nc2-1 (stereo partly drawn) | 1.78 | 0.148 | 2.37 µM | > 23 | > 33.1 | 1.37 µM | 0.263 | 4.34 | 16.1 |  |  |  |  |  |  | 
O=C1N2Cc3c4ccc5c3CN3C(=O)N6Cc7c(ccc(c7CN1C6(c1ccccc1)C23c1ccccc1)OCCOCCOc1cc(Br)c(Br)cc1OCCOCCO4)OCCOCCOc1cc(Br)c(Br)cc1OCCOCCO5 (stereo not drawn) |  | > 100 | > 100 µM | > 100 | > 100 | > 100 µM | > 100 | > 100 | > 100 |  |  |  |  |  |  | 
C/C(=N\NC(=O)C[N+](C)(C)C)c1sc(-c2cccnc2)nc1C | > 100 | > 100 | > 100 µM |  | > 100 | > 100 µM | > 100 | > 100 | > 100 |  |  |  |  |  |  | 
C/C(=N\NC(N)=S)c1ccc(C)c(C)c1 | 48.1 | > 100 | 66.7 µM | > 100 | > 100 | > 100 µM | 38.3 | > 100 | > 100 |  |  |  |  |  |  | 
O=[P+](O)c1ccccn1 | > 100 | > 100 | > 100 µM |  | > 100 | > 100 µM | > 100 | > 100 | > 100 |  |  |  |  |  |  | 
Cc1ccc(S(=O)(=O)OCC#CCOS(=O)(=O)c2ccc(C)cc2)cc1 |  | 0.538 | 3.36 µM |  | 10.3 | 7.65 µM |  |  | 7.8 | 3.21 µM | 16.7 µM | 0.228 | 1.85 µM | 2.29 | 2.59 µM | 2.69
Cc1ccc(S(=O)(=O)N/N=C(\c2nc3ccc([N+](=O)[O-])cc3[nH]c2=O)C(O)c2ccc([N+](=O)[O-])cc2)cc1 (stereo not drawn) | > 100 | > 100 | > 100 µM |  | > 100 | > 100 µM | > 100 | > 100 | > 100 |  |  |  |  |  |  | 
CN(C)CCC(/C=C/c1ccccc1)=N\Nc1ccc(Cl)c(Cl)c1 | 7.23 | 3.41 | 16.8 µM | 8.28 | 6.03 | 7.22 µM |  | 4.13 | 22.6 |  |  |  |  |  |  | 
NC(=S)N=Nc1c(O)[nH]c2c(Cl)cc(Cl)cc12 |  | > 100 | 34.8 µM |  | > 100 | 32.3 µM |  |  | 29.6 |  | > 100 µM |  |  |  |  | 
CS(=O)(=O)Nc1cc(-c2ccc3ncnc(Nc4ccc(F)c(Cl)c4)c3c2)cnc1Cl |  | 1.69 | 1.92 µM and 5.33 µM |  | > 82.4 | 4.53 µM and 6.29 µM |  |  | 9.61 | 0.216 µM and 0.227 µM | 11.4 µM and 11.8 µM | 0.204 | 0.36 µM and 0.616 µM | 1.71 | 0.477 µM and 0.718 µM | 0.345
Cc1cc(N(CCC#N)CCC#N)ccc1N=Nc1cc(Cl)ccc1Cl |  | 30.9 | 18.2 µM | 22.1 | 11.4 | 11.4 µM | 22.9 | 3.35 | 21.1 |  |  |  |  |  |  | 
O=C1C(=C2CCCC2)CCC1CN1CCCCC1 (stereo not drawn) |  | > 100 | 30.6 µM | 28.7 | 47.1 | 29.6 µM | 41.2 | 26.2 | 31.3 |  |  |  |  |  |  | 
CC(C)(C)OP(=O)(OC(C)(C)C)C(O)c1ccc(/C=C(\C#N)C(N)=O)cc1 (stereo not drawn) | > 100 | > 100 | > 100 µM |  | > 100 | > 100 µM | > 100 | > 100 | > 100 |  |  |  |  |  |  | 
COc1ccc(/C(C)=N/NC(=O)CSc2nc3ccccc3c(=O)n2CCc2ccc(S(N)(=O)=O)cc2)cc1 |  | 3.28 | 3.85 µM |  | > 100 | 3.75 µM |  |  | 3.3 | 2.95 µM | 11.2 µM | 1.56 | 1.99 µM | 2.87 | 1.91 µM | 1.75
OB(O)c1ccccc1C#Cc1ccccc1B(O)O |  | 60.5 | 68.6 µM |  | > 100 | 57.6 µM |  |  | 99.3 |  | 31.3 µM |  |  |  |  | 
CC1=C(/C=C/C(=O)CC(=O)/C=C/C2=C(C)CCCC2(C)C)C(C)(C)CCC1 |  | > 100 | > 100 µM |  | > 100 | > 100 µM |  |  | > 100 | 22.7 µM | 72.9 µM | 26.8 | 32.1 µM | 18.7 | 47.7 µM | 27

Reference: PubChem BioAssay (NCI)
